Data reported in PubChem BioAssay (NCI).
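Step 1: Grow cells in 96-well plates. Step 2: Expose to compound for 48 hours at 5 concentrations. Step 3: Interpolate endpoints linearly; if unreached, use highest concentration. The concentration for 50% growth inhibition is given as GI50.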

Experiments:
Experiment in all cases: NCI anticancer screen, dose series, 48 h; in the data active means GI50 below about 0.43 µM; inactive means the rest
COLO 205 colon = test system: COLO 205 colon
HT29 colon = test system: HT29 colon
K-562 leukemia = test system: K-562 leukemia
NCI-H522 lung = test system: NCI-H522 lung
RPMI-8226 leukemia = test system: RPMI-8226 leukemia
SNB-19 CNS = test system: SNB-19 CNS
SNB-75 CNS = test system: SNB-75 CNS
U251 CNS = test system: U251 CNS
UO-31 renal = test system: UO-31 renal

Measured: GI50

O=C1C2C(C(=O)N1c1ccc(OCc3ccccc3)cc1)C1c3ccccc3C2C2CCCCN21 (centres undefined)
inactive: COLO 205 colon 73.3 µM | HT29 colon 79.7 µM | K-562 leukemia 59.8 µM | NCI-H522 lung 53.5 µM | RPMI-8226 leukemia 64 µM | SNB-19 CNS 47.6 µM | SNB-75 CNS 61.4 µM | U251 CNS 41.5 µM | UO-31 renal 32.7 µM
